Assay results from patent US6656936B1, “Carnitine analogues as topical, microbicidal spermicides” (Virginia Tech Intellectual Properties, Inc., priority 1999, dated 2003).
In brackets after ≈: the same amount, converted by molar mass. Marks after values point to notes of the source that are not given here.

Tests used:
[1] = test system: human sperm (semen samples); assay: Spermicidal activity in the Sander-Cramer test; format: cell-based; conditions: for Highest Spermicidal Dilution (1/X) / MEC (Minimum Effective Concentration) / MEC: n=10; for MEC (Minimum Effective Concentration per Sander-Cramer assay): Table 4, dH2O
Procedure: Semen samples were collected from healthy human volunteers: only specimens with >60×10^6 motile sperm/mL and >50% motility were used. Two-fold serial dilutions of the compounds were prepared in 0.9% saline and incubated with semen samples for 20 seconds. Sperm were assessed under the microscope and positive dilutions (i.e. all observed sperm were immotile) were further incubated at 37° C. for 1 hour with 2 vol. of buffer, and re-examined for sperm motility. If no motile sperm were seen, the positive score was maintained. The Minimum Effective Concentration (MEC) for the compound was calculated using the highest sperm immobilizing dilution and its initial concentration.

HIV-1 (RF strain) = assay: In vitro anti-HIV cell-free inactivation assay; format: cell-based; conditions: for reduction of infective viral titer: 2 minutes exposure
Procedure: The assay for in vitro anti-HIV activity followed the previously described procedure (Resnick et al., 1990). An infectious suspension of HIV-1 (RF strain, NIH 1983) was exposed to the compounds for 2 minutes. Immediately after, the mixture was 10-fold serially diluted with medium to terminate compound effect, and the dilutions were incubated with MT-2 target cells at 37° C. The cells were maintained in growth medium at 37° C. for 6 days. HIV-induced cytopathology (syncytium formation) was assessed on day 6 after infection, as was cell viability.

[2] = test system: sperm penetration in bovine cervical mucus; assay: Cervical mucus biodiffusion, Double-End test; conditions: testing concentration ten fold MEC; 60 minutes incubation; n=12
Procedure: The cervical mucus Biodiffusion properties of (R)Z-14 and (R)-Z-15 analogues were tested in comparison to that of N-9 using the Double-End test (Doncel. 1994). In this test, compound solutions (in 0.9% saline) were incubated for 60 minutes with a 7 cm capillary tube containing bovine cervical mucus (Penetrak®, Biochem Immuno System, Norwell, Mass.) opened at one end. After such incubation, the tubes' open end, which had been in contact with the compound, was sealed. Subsequently, the tubes were cut open at 20 mm from the initial opening, inverted, and immersed in semen so as to allow sperm penetration in an opposite direction to that of the compound diffusion. Sperm cease penetration when they encounter a bioactive concentration of the test compound. Thus, the lower the sperm penetration, the greater the compound's biodiffusion. In addition, the spermicidal activity of the analogues was tested again.

Candida albicans = assay: Inhibition of growth of Candida albicans (MIC); format: cell-based; conditions: for MIC: C. albicans, 4 days at 28° C.
Procedure: The Minimum Inhibitory Concentrations (MICs) of Z-10-Z-15 were measured by determining the inhibition of growth of C. albicans in a solution of mineral salts plus yeast extract (See Standard Practice for Determining Resistance of Synthetic Polymeric Material to Fungi. American Society for Testing and Materials (ASTM) Standards on Materials and Environmental Microbiology, 1st Ed., 1987), and amended with glucose (10 g/L) and yeast extract (1 g/L). An aliquot (250 μl) of sterile medium was dispensed into each well of a 96-well microplate. Stock solutions were prepared by dissolving test compounds in 50% (v/v) aqueous dimethylsulfoxide (DMSO). Each well (plus controls) was then inoculated with 5 μl of a suspension of C. albicans. The suspension was then adjusted to provide OD686=0.28. This density contains ca. 2.5×10^7 colony forming units (CFU)^2/mL. The microplates were incubated in the dark for 4 days at 28° C.

[3] = Effect of time in CMC formulation on activity and chemical integrity; format: physicochemical
Procedure: Residual samples of (R)-Z-15 in the CMC formulation were analyzed with ^1H nuclear magnetic resonance (NMR) and Matrix Assisted Laser Desorption Ionization Time of Flight Mass Spectroscopy (MALDI-TOF). For the NMR analyses, samples of the hydrogel were dissolved in D2O. For the MALDI-TOF analysis a sample of the hydrogel was placed in the chamber and subjected to the laser. The MALDI-TOF results are depicted in FIG. 1.

spermatozoa = assay: Sperm motility inhibition dose-response; format: cell-based; conditions: FIG. 2
Procedure: The ability of Z-15-mucic acid blends [(R)-Z-15-MA and rac-Z-15-MA] to inhibit sperm motility was tested in comparison to (R)-Z-15 alone or N-9. The results are depicted in FIG. 2.

pH of sample = format: physicochemical
Source text: The recent disclosure (Fassi, U.S. Pat. No. 5,952.379) of stable, non-hygroscopic salts of L-(-)[(R)-]acylcamitine and alkanoyl L-(-)-[(R)-]acylcarnitines with mucic acid (MA) (2:1) prompted the exploration of the effects of blending MA with Z-15. Blending reduced the pH of a sample of Z-15 from about 9-10 to about 3.5-3.8. The blends contained only 67% Z-15 as an active ingredient compared to pure Z-15 (100%).

[4] = Table 1, initial conc. 10 mg/ml in dH2O
[5] = Table 5, initial conc. 10 mg/ml in dH2O
[6] = Table 6, initial conc. 10 mg/mL in dH2O

| Molecule | MIC (Candida albicans) | Highest Spermicidal Dilution (1/X) [1, 4] | MEC (Minimum Effective Concentration) [1, 4] | MEC (Minimum Effective Concentration per Sander-Cramer assay) [1] | Highest Spermicidal Dilution (1/X) [1, 5] | MEC [1, 5] | reduction of infective viral titer (HIV-1 (RF strain); 0.032 mg/mL) | reduction of infective viral titer (HIV-1 (RF strain); 0.1 mg/mL) | reduction of infective viral titer (HIV-1 (RF strain); 0.32 mg/mL) | reduction of infective viral titer (HIV-1 (RF strain); 1 mg/mL) | DET % control (test sperm penetration compared to control) [2] | reduction of infective viral titer (HIV-1 (RF strain); 3.2 mg/mL) | reduction of infective viral titer (HIV-1 (RF strain); 10 mg/mL) | other results |
| --- | --- | --- | --- | --- | --- | --- | --- | --- | --- | --- | --- | --- | --- | --- |
| Nonoxynol-9 [Compound N-9, reference compound] | – | 83.2 ± 18.2 1/X | 0.144 ± 0.011 mg/mL | 0.144 ± 0.011 mg/mL | 33.6 ± 3.5 1/X | 0.329 ± 0.035 mg/mL | 0.5 log units | 2.2 log units | 3.5 log units | ≧4.0^ log units | 17.5 ± 0.7 % control | – | – | Highest Spermicidal Dilution (1/X) [1, 6]: 73.6 ± 8.4 1/X; MEC [1, 6]: 0.156 mg/mL; anti-HIV activity, in words (HIV-1 (RF strain); Table 2): slightly more active than these compounds |
| CCCCCCCCCCCCCCC[C@@]1(O)C[N+](C)(C)C[C@@H](CC(=O)[O-])O1 [Compound Z-15] | 2 µg/mL (≈ 5 µM) | 102.4 ± 9.9 1/X | 0.109 ± 0.012 mg/mL | 0.104 ± 0.011 mg/mL | 73.6 ± 9.1 1/X | 0.156 ± 0.019 mg/mL | 0.3 log units | 1.5 log units | 2.7 log units | 3.2 log units | 16.0 ± 0.0 % control | 3.8 log units | ≧4.0^ log units | spermicidal activity (MEC), in words ([1]; Table 1): slightly lower than that of N-9; C. albicans growth inhibition, in words (Candida albicans): highest activity; chemical integrity in formulation (1H NMR, MALDI-TOF) ([3]; six months in the CMC formulation): remained unchanged chemically; spermicidal activity after time in formulation ([3]; three months in the CMC formulations): still active as a spermicide after three months; inhibition of sperm motility at concentrations below the MEC, in words (spermatozoa): superior ability of Z-15 over N-9; pH of a sample (pH of sample): 9-10 |
| CCCCCCCCCC[C@@]1(O)C[N+](C)(C)C[C@@H](CC(=O)[O-])O1 [Compound Z-10] | >100 µg/mL | 4.8 ± 0.5 1/X | 2.3 ± 0.2 mg/mL | – | – | – | – | – | 0.8 log units | 1.0 log units | – | 2.8 log units | ≧4.0^a log units | – |
| CCCCCCCCCCCCCCCC1(O)C[N+](C)(C)CC(CC(=O)[O-])O1 (racemic) [(rac)-Z-15] | – | – | – | – | 115.2 ± 23.6 1/X | 0.117 ± 0.016 mg/mL | – | – | – | – | – | – | – | spermicidal activity, in words ([1]; Table 5): slightly more active than the two enantiomers and significantly more active than N-9; spermicidal activity, in words ([1]; Table 6): activity equal to that of the R and S enantiomers; Highest Spermicidal Dilution (1/X) [1, 6]: 108.80 ± 19.20 1/X; MEC [1, 6]: 0.113 mg/mL |
| CCCCCCCCCCCCCC[C@@]1(O)C[N+](C)(C)C[C@@H](CC(=O)[O-])O1 [Compound Z-14] | 10 µg/mL (≈ 25.9 µM) | 102.4 ± 18.5 1/X | 0.121 ± 0.014 mg/mL | 0.091 ± 0.008 mg/mL | – | – | 0.5 log units | 1.5 log units | 2.8 log units | 3.5 log units | 18.0 ± 1.2 % control | ≧4.0 log units | ≧4.0^ log units | spermicidal activity (MEC), in words ([1]; Table 1): slightly lower than that of N-9; C. albicans growth inhibition, in words (Candida albicans): acceptable activity |

The next lines start with results.

| MIC (Candida albicans) | Molecule | Highest Spermicidal Dilution (1/X) [1, 4] | MEC (Minimum Effective Concentration) [1, 4] | MEC (Minimum Effective Concentration per Sander-Cramer assay) [1] | Highest Spermicidal Dilution (1/X) [1, 5] | MEC [1, 5] | reduction of infective viral titer (HIV-1 (RF strain); 0.032 mg/mL) | reduction of infective viral titer (HIV-1 (RF strain); 0.1 mg/mL) | reduction of infective viral titer (HIV-1 (RF strain); 0.32 mg/mL) | reduction of infective viral titer (HIV-1 (RF strain); 1 mg/mL) | DET % control (test sperm penetration compared to control) [2] | reduction of infective viral titer (HIV-1 (RF strain); 3.2 mg/mL) | reduction of infective viral titer (HIV-1 (RF strain); 10 mg/mL) | other results |
| --- | --- | --- | --- | --- | --- | --- | --- | --- | --- | --- | --- | --- | --- | --- |
| >100 µg/mL | CCCCCCCCCCC[C@@]1(O)C[N+](C)(C)C[C@@H](CC(=O)[O-])O1 [Compound Z-11] | 7.6 ± 0.0 1/X | 1.4 ± 0.1 mg/mL | – | – | – | – | – | 0.8 log units | 2.0 log units | – | 2.7 log units | 4.7 log units | – |
| 40 µg/mL (≈ 108 µM) | CCCCCCCCCCCCC[C@@]1(O)C[N+](C)(C)C[C@@H](CC(=O)[O-])O1 [Compound Z-13] | 48.0 ± 5.1 1/X | 0.235 ± 0.025 mg/mL | – | – | – | 0.5 log units | 1.5 log units | 2.7 log units | 3.3 log units | – | 3.5 log units | 3.5 log units | – |
| 80 to 100 µg/mL | CCCCCCCCCCCC[C@@]1(O)C[N+](C)(C)C[C@@H](CC(=O)[O-])O1 [Compound Z-12] | 27.2 ± 2.3 1/X | 0.407 ± 0.7 mg/mL | – | – | – | 0.0 log units | 0.3 log units | 2.0 log units | 2.8 log units | – | ≧3.5 log units | ≧4.0^ log units | – |
